The text below walks through data of patent US4906623A, “3-Imidazolium cephalosporin derivatives” (Otsuka Kagaku Kabushiki Kaisha, priority 1985, dated 1990).

Experiment in all cases: in vitro anti-bacterial activity, two-fold agar plate dilution method
Holding throughout (type): cell-based

Assay [1] relates to Proteus vulgaris. Here is the method:
(§1) The agent for preventing and treating bacterial infections was tested for in vitro anti-bacterial activity by the following two-fold agar plate dilution method. Each test strain was incubated for 20 hours in a bouillon for measuring sensitivity to obtain a test culture (containing about […]). Portions of sensitivity measuring agar medium containing varying concentrations of the antibacterial agent were each innoculated with a 0.005 ml portion of the culture, followed by incubation at 37° C. for 20 hours. The minimum growth inhibitory concentration (MIC) in μg/ml was then determined.
(§2) MIC=minimum inhibitory concentration

The test system of assay [2] is Escherichia coli NIHJ-JC2. Here is the method: as §1, §2
The test system of assay [3] is Staphylococcus aureus 209P. Here is the method:
as §1, §2

Assay [4] concerns Serratia marcescens. The protocol: as §1, §2
Assay [5] concerns Klebsiella pneumoniae. The protocol:
as §1, §2

Assay [6] concerns Escherichia coli CSH(RE45). Conditions: 37° C., 20 hours, read-out: MIC. The protocol: as §1, §2
In assay [7] the test system is Pseudomonas aeruginosa. The protocol: as §1, §2
The subject of assay [8] is Proteus mirabilis. The protocol: as §1, §2
For assay [9], the system named is Pseudomonas cepacia. The note with it: Burkholderia cepacia, 37° C., 20 hours, read-out: MIC. Here is the method: as §1, §2
[10] abbreviates: agar dilution, 37° C., 20 hours, read-out: MIC.
Where [11] appears, read: NIHJJC2, Escherichia coli NIHJ-JC2, agar dilution, 37° C., 20 hours, read-out: MIC.
[12] abbreviates: Staphylococcus aureus 209P, agar dilution, 37° C., 20 hours, read-out: MIC.

Values after ≈ are worked out from the molar mass of the structure shown. Where two headings read alike, the source gives them in different places. Some results are limits rather than exact numbers.

The MIC is the lowest concentration that inhibits growth of the organism. With `Cn1c[n+](CC2=C(C(=O)[O-])N3C(=O)C(NC(=O)/C(=N\OC(C)(C)C(=O)O)c4csc(N)n4)C3SC2)c2ccccc21` (stereo not drawn) [L, 7-{2-(2-aminothiazole-4-yl)-2-[potassium(2,2-dimethylacetate)oxyimino]acetamide}-3-(benz-3-N-methyl-1-imidazoliomethyl)-3-cephem-4-carboxylate], the MIC amounted to 0.2 µg/mL in assay [1] (setting [10]); 0.2 µg/mL in assay [2] (setting [11]); 1.56 µg/mL in assay [3] (Staphylococcus aureus, 209P, 20 h); 0.78 µg/mL in [4] (20 h); 0.78 µg/mL in assay [5] (20 h); 0.2 µg/mL in assay [6]. Moreover, the MIC was found to be 3.13 µg/mL in assay [7] (20 h), 0.2 µg/mL in assay [8] (setting [10]) and 6.25 µg/mL in assay [9].

As for `CC(C)(O/N=C(\C(=O)NC1C(=O)N2C(C(=O)[O-])=C(C[n+]3ccn(C4CCCCC4)c3)CSC12)c1csc(N)n1)C(=O)O` (stereo not drawn) [N, 7-{2-(2-aminothiazole-4-yl)-2-[potassium(2,2-dimethylacetate)oxyimino]acetamide}-3-(3-cyclohexyl-1-imidazoliomethyl)-3-cephem-4-carboxylate], the MIC came out at 0.2 µg/mL in assay [1] (setting [10]); 0.2 µg/mL in [2] (setting [11]); 6.25 µg/mL in [3] (setting [12]); 1.56 µg/mL in assay [4] (setting [10]); 0.78 µg/mL in assay [5] (20 h); 0.1 µg/mL in assay [6]. Besides, the results for the MIC in assay [7] (setting [10]), in [8] (setting [10]) and in assay [9] were 6.25 µg/mL, 0.2 µg/mL and 25 µg/mL, respectively.

In the case of `CC(C)(O/N=C(\C(=O)NC1C(=O)N2C(C(=O)[O-])=C(C[n+]3ccn(-c4ccc(O)cc4)c3)CSC12)c1csc(N)n1)C(=O)O` (stereo not drawn) [O, 7-{2-(2-aminothiazole-4-yl)-2-[potassium(2,2-dimethylacetate)oxyimino]acetamide}-3-[3-(4-hydroxyphenyl)-1-imidazoliomethyl]-3-cephem-4-carboxylate], the MIC in [1] (20 h) amounted to 0.1 µg/mL; in [2] (setting [11]) it was 0.2 µg/mL; in [3] (setting [12]), 6.25 µg/mL; in assay [4] (20 h), 0.78 µg/mL; in assay [5] (20 h), 0.78 µg/mL; in assay [6] it was 0.1 µg/mL. The MIC is 6.25 µg/mL in assay [7] (setting [10]), 0.2 µg/mL in assay [8] (20 h) and 25 µg/mL in [9].

Turning to `CC(C)(O/N=C(\C(=O)NC1C(=O)N2C(C(=O)[O-])=C(C[n+]3cn(Cc4ccccc4)c4ccccc43)CSC12)c1csc(N)n1)C(=O)O` (stereo not drawn) [P, 7-{2-(2-aminothiazole-4-yl)-2-[potassium(2,2-dimethylacetate)oxyimino]acetamide}-3-(benz-3-N-benzyl-1-imidazoliomethyl)-3-cephem-4-carboxylate], the MIC stood at 1.56 µg/mL in assay [1] (20 h); 3.13 µg/mL in [2] (setting [11]); 3.13 µg/mL in assay [3] (setting [12]); 6.25 µg/mL in [4] (setting [10]); 6.25 µg/mL in assay [5] (setting [10]); 1.56 µg/mL in assay [6]. In addition, the MIC worked out at 6.25 µg/mL in assay [7] (setting [10]), 3.13 µg/mL in assay [8] (20 h) and 50 µg/mL in assay [9].

As to `C#CCn1c[n+](CC2=C(C(=O)[O-])N3C(=O)C(NC(=O)/C(=N\OC(C)(C)C(=O)O)c4csc(N)n4)C3SC2)c2ccccc21` (stereo not drawn) [Q, 7-{2-(2-aminothiazole-4-yl)-2-[potassium(2,2-dimethylacetate)oxyimino]acetamide}-3-[benz-3-N-(2-propynyl)-1-imidazoliomethyl]-3-cephem-4-carboxylate], the MIC in assay [1] (20 h) was found to be 0.1 µg/mL; in assay [2] (setting [11]) it was 0.2 µg/mL; in assay [3] (setting [12]), 3.13 µg/mL; in assay [4] (20 h), 0.78 µg/mL; in assay [5] (20 h), 0.78 µg/mL; in assay [6], 0.2 µg/mL. In addition, the MIC in [7] (20 h) is 3.13 µg/mL; in assay [8] (20 h) it was 0.39 µg/mL; in assay [9], 12.5 µg/mL.

For `C=C(C)Cn1c[n+](CC2=C(C(=O)[O-])N3C(=O)C(NC(=O)/C(=N\OC(C)(C)C(=O)O)c4csc(N)n4)C3SC2)c2ccccc21` (stereo not drawn) [R, 7-{2-(2-aminothiazole-4-yl)-2-[potassium(2,2-dimethylacetate)oxyimino]acetamide}-3-[benz-3-N-(2-methyl-2-propenyl)-1-imidazoliomethyl]-3-cephem-4-carboxylate], the MIC in assay [1] (20 h) was determined as 0.78 µg/mL; in [2] (setting [11]), 0.78 µg/mL; in assay [3] (setting [12]), 6.25 µg/mL; in [4] (20 h), 1.56 µg/mL; in assay [5] (20 h), 3.13 µg/mL; in assay [6] it was 1.56 µg/mL. The MIC in assay [7] (setting [10]) stood at 12.5 µg/mL; in [8] (20 h) it was 3.13 µg/mL; in assay [9], 25 µg/mL.

With `CCCCn1c[n+](CC2=C(C(=O)[O-])N3C(=O)C(NC(=O)/C(=N\OC(C)(C)C(=O)O)c4csc(N)n4)C3SC2)c2ccccc21` (stereo not drawn) [T, 7-{2-(2-aminothiazole-4-yl)-2-[potassium(2,2-dimethylacetate)oxyimino]acetamide}-3-(benz-3-N-butyl-1-imidazoliomethyl)-3-cephem-4-carboxylate], the MIC in assay [1] (20 h) was found to be 0.78 µg/mL; in assay [2] (setting [11]), 1.56 µg/mL; in [3] (setting [12]), 3.13 µg/mL; in [4] (20 h) it was 1.56 µg/mL; in [5] (20 h), 3.13 µg/mL; in [6], 0.39 µg/mL. Moreover, the MIC in [7] (setting [10]) was found to be 6.25 µg/mL; in [8] (20 h) it was 3.13 µg/mL; in [9], 25 µg/mL.

For `C=CCn1c[n+](CC2=C(C(=O)[O-])N3C(=O)C(NC(=O)/C(=N\OC(C)(C)C(=O)O)c4csc(N)n4)C3SC2)c2ccccc21` (stereo not drawn) [U, 7-{2-(2-aminothiazole-4-yl)-2-[potassium(2,2-dimethylacetate)oxyimino]acetamide}-3-[benz-3-N-(2-propenyl)-1-imidazoliomethyl]-3-cephem-4-carboxylate], the MIC worked out at 0.39 µg/mL in [1] (20 h); 0.39 µg/mL in [2] (setting [11]); 6.25 µg/mL in assay [3] (setting [12]); 1.56 µg/mL in assay [4] (20 h); 0.78 µg/mL in [5] (20 h); 0.2 µg/mL in assay [6]. Also, the results for the MIC in [7] (setting [10]), in [8] (20 h) and in assay [9] were 6.25 µg/mL, 1.56 µg/mL and 25 µg/mL, respectively.

Regarding `C=CCn1c[n+](CC2=C(C(=O)[O-])N3C(=O)C(NC(=O)/C(=N\OC)c4csc(N)n4)C3SC2)c2ccccc21` (stereo not drawn) [V, 7-[2-(2-aminothiazole-4-yl)-2-methoxyiminoacetamide}-3-[benz-3-N-(2-propenyl)-1-imidazoliomethyl]-3-cephem-4-carboxylate], the MIC in [1] (setting [10]) was determined as 3.13 µg/mL (≈ 5.65 µM); in assay [2] (Escherichia coli, NIHJJC2, 20 h) it was 0.78 µg/mL (≈ 1.41 µM); in assay [3] (setting [12]), 3.13 µg/mL (≈ 5.65 µM); in assay [4] (setting [10]), 12.5 µg/mL (≈ 22.6 µM); in assay [5] (setting [10]), 1.56 µg/mL (≈ 2.82 µM); in [6], 3.13 µg/mL (≈ 5.65 µM). For the same compound, the MIC in assay [7] (setting [10]) is greater than 100 µg/mL; in [8] (setting [10]), 6.25 µg/mL (≈ 11.3 µM); in assay [9], greater than 100 µg/mL.

Turning to `C=CCO/N=C(\C(=O)NC1C(=O)N2C(C(=O)[O-])=C(C[n+]3cn(CC=C)c4ccccc43)CSC12)c1csc(N)n1` (stereo not drawn) [W, 7-[2-(2-aminothiazole-4-yl)-2-(2-propenyloxyimino)acetamide]-3-[benz-3-N-(2-propeny)-1-imidazoliomethyl]-3-cephem-4-carboxylate], the MIC in [1] (20 h) was found to be 3.13 µg/mL (≈ 5.4 µM); in assay [2] (setting [11]) it was 3.13 µg/mL (≈ 5.4 µM); in assay [3] (setting [12]), 1.56 µg/mL (≈ 2.69 µM); in assay [4] (setting [10]), 25 µg/mL (≈ 43.1 µM); in assay [5] (setting [10]), 6.25 µg/mL (≈ 10.8 µM); in assay [6], 1.56 µg/mL (≈ 2.69 µM). Moreover, the MIC in [7] (setting [10]) is 50 µg/mL (≈ 86.3 µM); in assay [8] (setting [10]), 6.25 µg/mL (≈ 10.8 µM); in [9] it was greater than 100 µg/mL.

As to `CC=CCn1c[n+](CC2=C(C(=O)[O-])N3C(=O)C(NC(=O)/C(=N\OC(C)(C)C(=O)O)c4csc(N)n4)C3SC2)c2ccccc21` (stereo not drawn) [X, 7-{2-(2-aminothiazole-4-yl)-2-[potassium(2,2-dimethylacetate)oxyimino]acetamide}-3-[benz-3-N-(2-butenyl)-1-imidazoliomethyl]-3-cephem-4-carboxylate], the MIC in [1] (20 h) is 1.56 µg/mL; in assay [2] (setting [11]), 1.56 µg/mL; in [3] (setting [12]), 6.25 µg/mL; in assay [4] (20 h), 1.56 µg/mL; in [5] (20 h), 3.13 µg/mL; in assay [6], 0.78 µg/mL. Also, the values for the minimal inhibitory concentration (MIC) in assay [7] (setting [10]), in [8] (20 h) and in assay [9] were 12.5 µg/mL, 1.56 µg/mL and 50 µg/mL, respectively.

For `CC(C)=CCn1c[n+](CC2=C(C(=O)[O-])N3C(=O)C(NC(=O)/C(=N\OC(C)(C)C(=O)O)c4csc(N)n4)C3SC2)c2ccccc21` (stereo not drawn) [Y, 7-{2-(2-aminothiazole-4-yl)-2-[potassium(2,2-dimethylacetate)oxyimino]acetamide}-3-[benz-3-N-(3-methyl-2-butenyl)-1-imidazoliomethyl]-3-cephem-4-carboxylate], the MIC in assay [1] (20 h) is 3.13 µg/mL; in [2] (setting [11]), 6.25 µg/mL; in [3] (setting [12]), 6.25 µg/mL; in assay [4] (setting [10]) it was 12.5 µg/mL; in assay [5] (setting [10]) it was 12.5 µg/mL; in [6] it was 1.56 µg/mL. Also, the minimum inhibitory concentration (MIC) was 25 µg/mL in assay [7] (setting [10]), 6.25 µg/mL in assay [8] (setting [10]) and greater than 100 µg/mL in assay [9].
